Experimental data taken from ChEMBL document CHEMBL1201862, “PubChem BioAssay data set” (2004).
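Dose response: 5 concentrations. Exposure: 48 h. Format: 96-well plates. Endpoint: linear interpolation; highest concentration if not reached. GI50: concentration for 50% inhibition of growth.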 The source made the active and inactive calls. Rule as the data show it: active = GI50 up to about 1.1 µM and inactive = higher.

What was measured:
Test in all cases: NCI tumour cell line growth inhibition, 48 h
DLD-1 = system: DLD-1
HOP-18 = system: HOP-18
KM-20L2 = system: KM-20L2
LXFL 529 = system: LXFL 529
M19-MEL = system: M19-MEL
RXF 631 = system: RXF 631
SNB-78 = system: SNB-78
XF498 = system: XF498
DMS-114 = system: DMS-114

SMILES	GI50 (DLD-1)	GI50 (HOP-18)	GI50 (KM-20L2)	GI50 (LXFL 529)	GI50 (M19-MEL)	GI50 (RXF 631)	GI50 (SNB-78)	GI50 (XF498)	GI50 (DMS-114)
COC(=O)C1(C(=O)OC)CC(=O)c2cc3c(cc2-c2c(cc(OC)c(OC)c2OC)C1)OCO3	> 211 µM (inactive)	0.0211 µM (active)	> 211 µM (inactive)	137 µM (inactive)	> 211 µM (inactive)	> 211 µM (inactive)	–	–	–
Cc1cc(C)c(S(=O)(=O)ONC(=O)OC(C)(C)C)c(C)c1	> 100 µM (inactive)	–	–	> 100 µM (inactive)	> 100 µM (inactive)	> 100 µM (inactive)	> 100 µM (inactive)	> 100 µM (inactive)	–
N[C@H](C(=O)O)[C@@H](Cl)CC(=O)O	> 100 µM (inactive)	> 100 µM (inactive)	> 100 µM (inactive)	> 100 µM (inactive)	> 100 µM (inactive)	–	> 100 µM (inactive)	> 100 µM (inactive)	> 100 µM (inactive)
Nc1nc(O)c2[nH]nnc2n1 [8-AZAGUANINE]	20 µM (inactive)	0.339 µM (active)	9.2 µM (inactive)	16.3 µM (inactive)	–	–	1.02 µM (active)	–	6.5 µM (inactive)
COc1ccccc1NC(=O)C1=C(C)NC(C)=C(C(=O)Nc2ccccc2OC)C1c1ccc(C)cc1	–	76 µM (inactive)	> 100 µM (inactive)	74.1 µM (inactive)	42.5 µM (inactive)	–	56.5 µM (inactive)	24.3 µM (inactive)	51.9 µM (inactive)
COc1cccc2c1C(=N)c1c(O)c3c(c(O)c1C2=O)C[C@@](O)(C(C)=O)C[C@@H]3OC1CC(N)C(O)C(C)O1 (stereo partly drawn)	2.2 µM (inactive)	0.428 µM (active)	0.000374 µM (active)	0.542 µM (active)	0.486 µM (active)	0.728 µM (active)	2 µM (inactive)	0.202 µM (active)	0.148 µM (active)
CN(C)c1nc(N(C)C)n2nc(-c3ccccc3[N+](=O)[O-])nc2n1	48.5 µM (inactive)	> 100 µM (inactive)	> 100 µM (inactive)	86.3 µM (inactive)	> 100 µM (inactive)	–	> 100 µM (inactive)	> 100 µM (inactive)	> 100 µM (inactive)
O=C(Nc1ccc(F)cc1)C(=O)C(C1OC(=O)c2ccccc21)[N+](=O)[O-] (stereo not drawn)	> 100 µM (inactive)	–	> 100 µM (inactive)	> 100 µM (inactive)	> 100 µM (inactive)	–	> 100 µM (inactive)	> 100 µM (inactive)	> 100 µM (inactive)
CCC(=O)N(O)C(C)(C)C	> 100 µM (inactive)	–	> 100 µM (inactive)	> 100 µM (inactive)	> 100 µM (inactive)	–	> 100 µM (inactive)	–	> 100 µM (inactive)
O=C(Oc1ccc2c(-c3ccccc3)c(C(=O)Nc3ccc(Cl)cc3)c(=O)oc2c1)c1ccccc1	> 100 µM (inactive)	> 100 µM (inactive)	> 100 µM (inactive)	–	> 100 µM (inactive)	–	–	58.1 µM (inactive)	65.3 µM (inactive)
COC1=CC(=O)[C@]2(C)[C@H](C1=O)C(C)[C@H]2c1ccc(OC)cc1 (stereo partly drawn)	> 100 µM (inactive)	–	–	> 100 µM (inactive)	> 100 µM (inactive)	–	> 100 µM (inactive)	> 100 µM (inactive)	–
CCCC(O)c1ccc2[nH]c3c(C)cc([N+](=O)[O-])c(C)c3c2c1 (stereo not drawn)	54.1 µM (inactive)	> 100 µM (inactive)	–	–	> 100 µM (inactive)	–	> 100 µM (inactive)	> 100 µM (inactive)	> 100 µM (inactive)
CCOC(=O)C(CC/C=C\c1ccccc1)N1CCC[C@H]1C(=O)OC (stereo partly drawn)	> 100 µM (inactive)	> 100 µM (inactive)	> 100 µM (inactive)	> 100 µM (inactive)	> 100 µM (inactive)	–	> 100 µM (inactive)	> 100 µM (inactive)	59.6 µM (inactive)
C[Si](C)(C)/N=C1\N2C(=NC1(C(F)(F)F)C(F)(F)F)Sc1ccccc12	> 50 µM (inactive)	> 50 µM (inactive)	> 50 µM (inactive)	> 50 µM (inactive)	> 50 µM (inactive)	> 50 µM (inactive)	> 50 µM (inactive)	> 50 µM (inactive)	> 50 µM (inactive)
O=C1C(Cl)C(c2cccc(O)c2)N1n1cnc2ccccc2c1=O (stereo not drawn)	> 100 µM (inactive)	39.9 µM (inactive)	> 100 µM (inactive)	> 100 µM (inactive)	> 100 µM (inactive)	–	> 100 µM (inactive)	> 100 µM (inactive)	> 100 µM (inactive)
Cc1nc2c(nc1C)C(=O)c1cc(O)ccc1C2=O	> 51.3 µM (inactive)	> 100 µM (inactive)	57.4 µM (inactive)	> 100 µM (inactive)	8.13 µM (inactive)	–	> 100 µM (inactive)	–	37.2 µM (inactive)
Oc1cc(CN2CCOCCOCCOCCOCC2)c(O)cc1CN1CCOCCOCCOCCOCC1	22.1 µM (inactive)	–	> 50.6 µM (inactive)	21.1 µM (inactive)	14.1 µM (inactive)	–	> 57.1 µM (inactive)	22 µM (inactive)	–
CC1CC(=O)c2c(ccc3c2C(=O)c2cccc(O)c2C3=O)C1 (stereo not drawn)	2.94 µM (inactive)	6.58 µM (inactive)	–	4.31 µM (inactive)	1.41 µM (inactive)	13.2 µM (inactive)	7.29 µM (inactive)	12.6 µM (inactive)	6.38 µM (inactive)
COc1cccc2c1CCc1ccccc1CC2=O	> 100 µM (inactive)	> 100 µM (inactive)	> 100 µM (inactive)	> 100 µM (inactive)	> 100 µM (inactive)	–	–	> 100 µM (inactive)	> 100 µM (inactive)
O=C(N/C(=C\c1ccc(/C=C(\NC(=O)c2ccccc2)c2nc3ccccc3s2)cc1)c1nc2ccccc2s1)c1ccccc1	3.28 µM (inactive)	13.2 µM (inactive)	2.19 µM (inactive)	2.98 µM (inactive)	4.72 µM (inactive)	7.96 µM (inactive)	20.8 µM (inactive)	–	11.4 µM (inactive)
O=[N+]([O-])c1ccc2nc(/C(=N/Nc3ccccc3)C(O)c3ccco3)c(O)nc2c1 (stereo not drawn)	> 100 µM (inactive)	–	24.5 µM (inactive)	42.1 µM (inactive)	73.5 µM (inactive)	> 100 µM (inactive)	–	> 100 µM (inactive)	40 µM (inactive)
COC(=O)C1=C(C(=O)OC)C(C(=O)OC)C(C(=O)OC)=C1C(=O)OC	> 100 µM (inactive)	> 100 µM (inactive)	> 100 µM (inactive)	> 100 µM (inactive)	–	> 100 µM (inactive)	–	–	> 100 µM (inactive)
O=C1C=CC2(CCC23C=CC(=O)O3)O1 (stereo not drawn)	> 100 µM (inactive)	> 100 µM (inactive)	> 100 µM (inactive)	81.3 µM (inactive)	> 100 µM (inactive)	71 µM (inactive)	> 100 µM (inactive)	> 100 µM (inactive)	> 100 µM (inactive)
